# Assay results from patent publication US20250108065A1 (AstraZeneca AB, priority 2022, published 2025).
# Read-outs that look alike come from different tables or passages of the source.
# How the values were obtained:
# [1] = DAPA-HF (prediabetes); slope at 14-720 days
# From the text: (§1) “eGFR slope” is the change in […] over time. “eGFR” stands for the estimated glomerular filtration rate.
# (§2) (See Inker et al., GFR Slope as a Surrogate End Point for Kidney Disease Progression in Clinical Trials: A Meta-Analysis of Treatment Effects of Randomized Controlled Trials. J Am Soc Nephrol. 2019; 30 (9): 1735-45; Levey et al., GFR decline as an end point for clinical trials in CKD. Am J Kidney Dis. 2014; 64 (6): 821-35.)
# [2] = DAPA-HF, HbA1C < 6.5%, cited from earlier work
# [3] = non-diabetic and prediabetic patients, DAPA-HF and DAPA-CKD, 10 mg once daily
# From the text: DAPA-HF and DAPA-CKD included patients without diabetes, including those who qualify as prediabetic.
# [4] = DAPA-CKD, HbA1C < 6.5%, cited from earlier work
# [5] = DAPA-HF
# [6] = Meta-analysis DAPA-HF/CKD, cited from earlier work
# [7] = DAPA-HF; remark: listed apart in the source
# [8] = DAPA-CKD
# From the text: (§3) The patients without diabetes (or T2D) included those with prediabetes.
# [9] = DECLARE subgroup: HbA1c <7%, eGFR ≥60 ml/min/1.73 m^2, no history of HF, UACR ≤300 mg/g; Dapa 10 mg vs placebo
# Description: CI refers to Confidence interval; D refers to Dapa 10 mg; FAS refers to Full analysis set; HR refers to Hazard ratio; N refers to Number of participants; P refers to Placebo; refers to UACR Urinary albumin-to-creatinine ratio; and N at risk is the number of participants at risk at the beginning of the period.
# For the purposes of the analysis, 1 month corresponds to 30 days. […] HR, CI, and p-value are from a Cox proportional hazard model. Blood pressure categories include normal (SBP <120 mmHg and DBP <80 mmHg); elevated (SBP 120-129 mmHg and DBP <80 mmHg); hypertension stage 1 (SBP 130-139 mmHg or DBP 80-89 mmHg); hypertension stage 2 (SBP >140 mmHg or DBP >90 mmHg); hypertensive crisis (SBP >180 mmHg and/or DBP >120 mmHg).
# [10] = DAPA-CKD; remark: listed apart in the source
# [11] = From the text: as §1, §2, §3
# [12] = remark: listed apart in the source
# Description: The DECLARE study enrolled a broad T2D patient population. By using parameters to select for a relatively healthy population that is close to the prediabetes population, the DECLARE population was split into 4 subgroups. The four subgroups in DECLARE are those with eGFR ≥60 ml/min/1.73 m^2, no history of HF at baseline and: • 1. HbA1c <7%, SBP <140 mmHg, and UACR ≤300 mg/g, or • 2. HbA1c <7%, SBP <140 mmHg, and UACR <30 mg/g, or • 3. T2D <5 years and UACR ≤300 mg/g, or • 4. T2D <5 years and UACR ≤30 mg/g.
# as §2
# [13] = pre-diabetic 5.7% ≤ HbA1c < 6.5, Dapa vs placebo
smiles,measurement,setting,value
CCOc1ccc(Cc2cc([C@@H]3O[C@H](CO)[C@@H](O)[C@H](O)[C@H]3O)ccc2Cl)cc1 [dapagliflozin],"eGFR chronic slope, Slope diff between Dapa 10 mg and Placebo",[1],1.35 ml/min/1.73 m^2/yr
same,Event rate of new onset T2D,[2]; 2605 participants,Dapa: 5.0 per 100 patient-years of follow-up
same,HR (95% CI) new onset T2D,[2]; Dapa vs placebo,"0.68 (0.50, 0.94)"
same,Events of definite or probable diabetic ketoacidosis (DKA),[3],not observed
same,major hypoglycemic AEs,[3],not observed
same,safety profile,[3],consistent with the profile established in patients with T2D
same,Event rate of new onset T2D,[4]; 1398 participants,Dapa: 1.4 per 100 patient-years of follow-up
same,HR (95% CI) new onset T2D,[4]; Dapa vs placebo,"0.62 (0.36, 1.07)"
same,Event rate of new onset T2D,"[5]; pre-diabetic 5.7% ≤ HbA1C < 6.5, 1748 participants",Dapa: 5.3 per 100 patient-years of follow-up
same,HR (95% CI) new onset T2D,"[5]; pre-diabetic 5.7% ≤ HbA1C < 6.5, Dapa vs placebo","0.72 (0.52, 0.99)"
same,Event rate of new onset T2D,"[6]; HbA1c < 6.5%, 4003 participants",Dapa: 2.6 per 100 patient-years of follow-up
same,HR (95% CI) new onset T2D,"[6]; HbA1c < 6.5%, Dapa vs placebo","0.67 (0.51, 0.88)"
same,Event rate of new onset T2D,"[6]; pre-diabetic 5.7% ≤ HbA1c < 6.5, 2408 participants",Dapa: 4.2 per 100 patient-years of follow-up
same,HR (95% CI) new onset T2D,[6]; [13],"0.69 (0.52, 0.91)"
same,"HR, primary composite outcome (CV death, hospitalization for HF, or urgent HF visit)",[7]; patients with diabetes,0.75
same,"HR, primary composite outcome (CV death, hospitalization for HF, or urgent HF visit)",[7]; patients without diabetes,0.73
same,"HR, primary composite outcome of worsening of kidney function or death",[8]; patients with diabetes,0.64
same,"HR, primary composite outcome of worsening of kidney function or death",[8]; patients without diabetes,0.50
same,risk of worsening blood pressure (time to worsening in blood pressure category),[9],lowered the risk of worsening blood pressure compared with placebo
same,Event rate of new onset T2D,"[10]; pre-diabetic 5.7% ≤ HbA1c < 6.5, 660 participants",Dapa: 2.7 per 100 patient-years of follow-up
same,HR (95% CI) new onset T2D,[10]; [13],"0.59 (0.33, 1.04)"
same,"eGFR chronic slope, Slope diff between Dapa 10 mg and Placebo","[11]; DAPA-CKD (prediabetes), slope at 14 days-30 months",1.44 ml/min/1.73 m^2/yr
same,placebo-corrected difference in eGFR slope,"[11]; DAPA-CKD, T2D patients, from baseline to end of treatment",1.18 ml/min/1.73 m^2/yr
same,placebo-corrected difference in eGFR slope,"[11]; DAPA-CKD, T2D patients, from two weeks to end of treatment",2.26 ml/min/1.73 m^2/yr
same,placebo-corrected difference in eGFR slope,"[11]; DAPA-CKD, patients without T2D, from baseline to end of treatment",0.46 ml/min/1.73 m^2/yr
same,placebo corrected difference in eGFR slope,"[11]; DAPA-CKD, patients without T2D, from two weeks to end of treatment",1.29 ml/min/1.73 m^2/yr
same,"eGFR chronic slope, Slope diff between Dapa 10 mg and Placebo","[12]; DECLARE (Total Population), 6 months-2 yrs",1.34 ml/min/1.73 m^2/yr
same,"eGFR chronic slope, Slope diff between Dapa 10 mg and Placebo","[12]; DECLARE (Total Population), 6 months-3 yrs",1.18 ml/min/1.73 m^2/yr
same,"eGFR chronic slope, Slope diff between Dapa 10 mg and Placebo","[12]; DECLARE (Total Population), 6 months-4 yrs",1.01 ml/min/1.73 m^2/yr
same,"eGFR chronic slope, Slope diff between Dapa 10 mg and Placebo","[12]; DECLARE subgroup HbA1c <7%, SBP <140 mmHg, UACR <30 mg/g, eGFR ≥60, no HF, 6 months-2 yrs",1.25 ml/min/1.73 m^2/yr
same,"eGFR chronic slope, Slope diff between Dapa 10 mg and Placebo","[12]; DECLARE subgroup HbA1c <7%, SBP <140 mmHg, UACR <30 mg/g, eGFR ≥60, no HF, 6 months-3 yrs",1.17 ml/min/1.73 m^2/yr
same,"eGFR chronic slope, Slope diff between Dapa 10 mg and Placebo","[12]; DECLARE subgroup HbA1c <7%, SBP <140 mmHg, UACR <30 mg/g, eGFR ≥60, no HF, 6 months-3 yrs, listed as Dapa",1.71 ml/min/1.73 m^2/yr
same,"eGFR chronic slope, Slope diff between Dapa 10 mg and Placebo","[12]; DECLARE subgroup HbA1c <7%, SBP <140 mmHg, UACR <30 mg/g, eGFR ≥60, no HF, 6 months-4 yrs",0.98 ml/min/1.73 m^2/yr
same,"eGFR chronic slope, Slope diff between Dapa 10 mg and Placebo","[12]; DECLARE subgroup HbA1c <7%, SBP <140 mmHg, UACR ≤300 mg/g, eGFR ≥60, no HF, 6 months-2 yrs",1.56 ml/min/1.73 m^2/yr
same,"eGFR chronic slope, Slope diff between Dapa 10 mg and Placebo","[12]; DECLARE subgroup HbA1c <7%, SBP <140 mmHg, UACR ≤300 mg/g, eGFR ≥60, no HF, 6 months-3 yrs",1.85 ml/min/1.73 m^2/yr
same,"eGFR chronic slope, Slope diff between Dapa 10 mg and Placebo","[12]; DECLARE subgroup HbA1c <7%, SBP <140 mmHg, UACR ≤300 mg/g, eGFR ≥60, no HF, 6 months-4 yrs",1.08 ml/min/1.73 m^2/yr
same,"eGFR chronic slope, Slope diff between Dapa 10 mg and Placebo","[12]; DECLARE subgroup diabetes duration <5 years, UACR ≤30 mg/g, eGFR ≥60, no HF, 6 months-2 yrs",1.03 ml/min/1.73 m^2/yr
same,"eGFR chronic slope, Slope diff between Dapa 10 mg and Placebo","[12]; DECLARE subgroup diabetes duration <5 years, UACR ≤30 mg/g, eGFR ≥60, no HF, 6 months-3 yrs",0.96 ml/min/1.73 m^2/yr
same,"eGFR chronic slope, Slope diff between Dapa 10 mg and Placebo","[12]; DECLARE subgroup diabetes duration <5 years, UACR ≤30 mg/g, eGFR ≥60, no HF, 6 months-4 yrs",0.86 ml/min/1.73 m^2/yr
same,"eGFR chronic slope, Slope diff between Dapa 10 mg and Placebo","[12]; DECLARE subgroup diabetes duration <5 years, UACR ≤300 mg/g, eGFR ≥60, no HF, 6 months-2 yrs",0.88 ml/min/1.73 m^2/yr
same,"eGFR chronic slope, Slope diff between Dapa 10 mg and Placebo","[12]; DECLARE subgroup diabetes duration <5 years, UACR ≤300 mg/g, eGFR ≥60, no HF, 6 months-3 yrs",0.92 ml/min/1.73 m^2/yr
same,"eGFR chronic slope, Slope diff between Dapa 10 mg and Placebo","[12]; DECLARE subgroup diabetes duration <5 years, UACR ≤300 mg/g, eGFR ≥60, no HF, 6 months-4 yrs",0.86 ml/min/1.73 m^2/yr
same,renal benefits following dapagliflozin treatment,"[12]; DECLARE, T2D patients with eGFR 60 to 90 and ≥90 ml/min/1.73 m^2",reduced eGFR decline and albuminuria
